In PMC10466253, “Derivatives of 9-phosphorylated acridine as butyrylcholinesterase inhibitors with antioxidant activity and the ability to inhibit β-amyloid self-aggregation: potential therapeutic agents for Alzheimer’s disease” (Frontiers in Pharmacology, 2023):
Marks after values point to notes of the source that are not given here.

Tests used:
Porcine liver CES = experiment: In vitro inhibition of CES activity (spectrophotometric, 4-NPA substrate); assay type: biochemical; conditions: compound concentration 20 µM; mean ± SEM, n = 3
Experimental: (§1) Enzymes, substrates, and reference compounds were from Sigma-Aldrich (St. Louis, MO, United States). […] Experimental conditions: K,Na-phosphate buffer (100 mM), 25°С, pH 7.5 for AChE and BChE and pH 8.0 for CES assay. Measurements were carried out on a BioRad Benchmark Plus microplate spectrophotometer (Hercules, CA, United States).
(§2) Test compounds were dissolved in DMSO; final concentration of solvent in the incubation mixture was 2% (v/v).

β-amyloid (1-42) (Aβ42) = target: T1, β-amyloid (1-42) (Aβ42) (Homo sapiens, UniProt P05067); experiment: Inhibition of Aβ42 self-aggregation, thioflavin T fluorescence method; assay type: biochemical; conditions: Aβ42 50 µM, compound 100 µM, 24 h, 37°C; mean ± SEM, n = 3
T1 construct: purchased AnaSpec Inc
T1 sequence (P05067 672-713 limits assumed): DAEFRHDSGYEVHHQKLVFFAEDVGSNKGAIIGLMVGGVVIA
Experimental: Lyophilized HFIP-pretreated Aβ42 (AnaSpec Inc., 0.5 mg) was dissolved in DMSO to obtain a stable 500 μM solution. […] Myricetin and Propidium iodide in the same concentration were used as references.
Therefore, the decrease in ThT fluorescence in the presence of the studied compound correlates with its activity to inhibit the formation of amyloid aggregates.

Human erythrocyte AChE = target: T2, Human erythrocyte AChE (Homo sapiens, UniProt P22303); experiment: In vitro inhibition of AChE activity (spectrophotometric, ATCh iodide substrate); assay type: biochemical; conditions: for inhibition at 20 µM: read-out: Human erythrocyte AChE, (%) inhibition; for Human erythrocyte AChE, (%) inhibition: compound concentration 20 µM, mean ± SEM, n = 3
T2 construct: Human erythrocyte AChE, (%); purchased Sigma-Aldrich; host or cells: human erythrocytes
T2 sequence (P22303 32-617 isoform P22303-2 limits assumed): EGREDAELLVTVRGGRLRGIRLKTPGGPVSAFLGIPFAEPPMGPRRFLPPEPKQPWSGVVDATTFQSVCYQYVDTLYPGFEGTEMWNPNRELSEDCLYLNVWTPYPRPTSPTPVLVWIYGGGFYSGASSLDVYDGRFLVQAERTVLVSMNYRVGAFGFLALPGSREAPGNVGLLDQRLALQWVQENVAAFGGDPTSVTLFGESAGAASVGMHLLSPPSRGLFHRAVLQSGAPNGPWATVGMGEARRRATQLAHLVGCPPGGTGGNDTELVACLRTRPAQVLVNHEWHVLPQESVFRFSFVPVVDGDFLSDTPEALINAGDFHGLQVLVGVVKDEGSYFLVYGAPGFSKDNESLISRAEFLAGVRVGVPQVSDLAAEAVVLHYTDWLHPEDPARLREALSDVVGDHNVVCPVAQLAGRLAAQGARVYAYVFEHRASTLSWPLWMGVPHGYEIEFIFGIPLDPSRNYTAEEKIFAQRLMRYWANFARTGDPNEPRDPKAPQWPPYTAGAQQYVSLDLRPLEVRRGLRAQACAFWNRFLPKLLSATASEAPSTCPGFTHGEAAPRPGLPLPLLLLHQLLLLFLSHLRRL
Experimental: as §1, §2

Equine serum BChE = target: T3, Equine serum BChE (Equus caballus, UniProt P81908); experiment: In vitro inhibition of BChE activity (spectrophotometric, BTCh iodide substrate); assay type: biochemical; conditions: for inhibition at 20 µM: read-out: Equine serum BChE, (%) inhibition; for Equine serum BChE, (%) inhibition: compound concentration 20 µM, mean ± SEM, n = 3
T3 construct: Equine serum BChE, (%); purchased Sigma-Aldrich; host or cells: equine serum
T3 sequence (P81908 whole entry): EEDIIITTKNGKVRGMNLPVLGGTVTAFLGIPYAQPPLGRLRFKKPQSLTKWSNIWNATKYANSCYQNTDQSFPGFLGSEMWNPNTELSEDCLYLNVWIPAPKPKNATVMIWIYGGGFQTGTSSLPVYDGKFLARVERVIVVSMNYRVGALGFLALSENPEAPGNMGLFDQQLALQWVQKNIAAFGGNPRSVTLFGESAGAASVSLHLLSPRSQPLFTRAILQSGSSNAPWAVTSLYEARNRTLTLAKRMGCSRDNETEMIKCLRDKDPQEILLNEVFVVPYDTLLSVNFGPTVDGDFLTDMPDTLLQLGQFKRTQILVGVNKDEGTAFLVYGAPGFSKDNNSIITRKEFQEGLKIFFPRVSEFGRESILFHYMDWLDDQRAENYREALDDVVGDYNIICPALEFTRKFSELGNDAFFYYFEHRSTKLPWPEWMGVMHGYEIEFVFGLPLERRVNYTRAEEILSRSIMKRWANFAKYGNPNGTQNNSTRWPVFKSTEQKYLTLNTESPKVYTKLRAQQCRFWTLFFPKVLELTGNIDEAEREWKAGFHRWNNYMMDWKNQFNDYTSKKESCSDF
Experimental: as §1, §2

[1] = FRAP (ferric reducing antioxidant power) assay; conditions: Trolox equivalents; 1 h, 37°C, pH 3.6
Experimental: The ferric reducing antioxidant power (FRAP) assay proposed by [Benzie and Strain (1996)]; [Benzie and Strain (1999)] modified to be performed in 96-well microplates as described in detail in [Makhaeva et al. (2020)] was used. 10 μL (0.5 mM) of the tested or reference compounds were mixed with 240 µL of FRAP reagent (2.5 mL of 10 mM TPTZ (2,4,6-tris(2-pyridyl)-s-triazine) solution in 40 mM HCl, 2.5 mL of 20 mM FeCl3 in distilled water and 25 mL of 0.3 M acetate buffer pH 3.6); the absorbance of the mixture was measured spectrophotometrically (λ = 593 nm) with a FLUOStar OPTIMA microplate reader at 600 nm after a 1 h incubation at 37°C against a blank. Trolox was used as a reference compound. The results were expressed as Trolox equivalents (TE)—the ratio of the concentrations of Trolox and the test compound resulting in the same effect on ferric reducing activity.

[2] = ABTS radical cation scavenging activity assay; conditions: for ABTS•+-scavenging activity, TEAC: Trolox equivalent antioxidant capacity, ratio of slopes compound/Trolox; for IC50: concentration for 50% reduction of ABTS radical cation
Experimental: Radical scavenging activity of the compounds was evaluated using the ABTS radical cation (2,2ʹ-azinobis-(3-ethylbenzothiazoline-6-sulfonic acid), ABTS^•+) decolorization assay ([Re et al., 1999]), with minor modifications described in detail in [Makhaeva et al. (2019a)]. To prepare the solution of ABTS^•+, equal volumes of aqueous solutions of 7 mM ABTS and 2.45 mM potassium persulfate were incubated for 12–16 h at room temperature in the dark. Radical scavenging capacity of the compounds was determined by mixing 10 μL of compound solution in DMSO with 240 μL of ABTS^•+ working solution in ethanol (100 μM final concentration). The reduction in ABTS^•+ absorbance was measured spectrophotometrically at 734 nm using a xMark UV/VIS microplate spectrophotometer (Bio-Rad, Hercules, CA, United States) for 1 h with an interval of 10 min compared to a standard synthetic antioxidant Trolox (6-hydroxy-2,5,7,8-tetramethylchroman-2-carboxylic acid). Ascorbic acid was used as a positive control.
The antioxidant activity of the compounds was reported as Trolox equivalent antioxidant capacity (TEAC values) as the ratio of the slopes of the concentration−response curves, test compound/Trolox. The IC50 values for the test compounds were also determined.

BChE = target: T4, BChE (Equus caballus, UniProt P81908); experiment: Kinetic studies of BChE inhibition (Lineweaver-Burk); assay type: biochemical, equine
T4 construct: Equine serum BChE, (%); purchased Sigma-Aldrich; host or cells: equine serum
T4 sequence (P81908 whole entry): as above
Experimental: Mechanism of BChE inhibition was assessed by a detailed analysis of enzyme kinetics with three increasing concentrations of inhibitor and six substrate concentrations as described in detail in [Makhaeva et al. (2017)].
Lineweaver-Burk plots-double reciprocal representations of Michaelis-Menten parameters-were used to assess the type of inhibition.

Row | Compound | Porcine liver CES, (%) inhibition (Porcine liver CES) | Inhibition of Aβ42 self-aggregation, (%) (β-amyloid (1-42) (Aβ42)) | inhibition at 20 µM (Human erythrocyte AChE) [%] | inhibition at 20 µM (Equine serum BChE) [%] | FRAP Fe3+-reducing activity, TE [1] [TE] | inhibition at 100 µM (β-amyloid (1-42) (Aβ42)) [%] | IC50 (Equine serum BChE) [µM] | ABTS•+-scavenging activity, TEAC [2] | IC50 [2] [µM] | also measured
1 | CCOP(=O)(OCC)c1c2ccccc2nc2ccccc12 [Compound 2b] | 10.5 ± 1.3% | n.а | 10.4 ± 1.2 | 10.8 ± 1.5 | 0.07 ± 0.01 | – | – | – | – | –
2 | O=P(CCc1ccccc1)(CCc1ccccc1)C1c2ccccc2Nc2ccccc21 [Compound 1e] | 22.2 ± 1.7% | – | 8.8 ± 2 | – | 1.10 ± 0.01 | 46.9 ± 4.2 | 3.22 ± 0.25 | 0.9 ± 0.03 | 21.8 ± 0.9 | time to reach the maximum degree of ABTS•+ radical binding [2]: 30 min
3 | O=P(Oc1ccccc1)(Oc1ccccc1)C1c2ccccc2Nc2ccccc21 [Compound 1c] | 21.6 ± 1.7% | – | 6.3 ± 0.9 | – | 1.13 ± 0.02 | 19.8 ± 1.5 | 48 ± 3.1 | 1.13 ± 0.05 | 17.8 ± 1.1 | –
4 | O=C1O[C@H]([C@@H](O)CO)C(O)=C1O [Ascorbic acid, reference compound] | – | – | – | – | 1.23 ± 0.11 | – | – | 0.97 ± 0.04 | 22.4 ± 2.2 | –
5 | O=P(CCc1ccc(Cl)cc1)(CCc1ccc(Cl)cc1)C1c2ccccc2Nc2ccccc21 [Compound 1f] | – | – | 6.4 ± 1 | – | 0.81 ± 0.02 | 34.1 ± 2.7 | 21.7 ± 1.7 | 0.80 ± 0.03 | 22.6 ± 0.7 | time to reach the maximum degree of ABTS•+ radical binding [2]: 30 min
6 | O=P(CCc1ccccc1)(CCc1ccccc1)c1c2ccccc2nc2ccccc12 [Compound 2e] | 13.5 ± 1.7% | n.а | 10.4 ± 1.3 | 25.7 ± 2 | – | – | – | – | – | –
7 | O=P(OCc1ccccc1)(OCc1ccccc1)C1c2ccccc2Nc2ccccc21 [Compound 1d, 9-bis(benzyloxy)phosphoryl-9,10-dihydroacridine] | 18.7 ± 1.4% | – | 7.6 ± 1.2 | – | 0.97 ± 0.06 | 58.9 ± 4.7 | 2.9 ± 0.23 | 0.97 ± 0.04 | 20.8 ± 1.3 | type of BChE inhibition (BChE; Lineweaver-Burk analysis): mixed type of inhibition; Ki (BChE; steady state inhibition, read-out: competitive component (Ki) of BChE inhibition): 2.22 ± 0.19 µM
8 | O=[N+]([O-])c1ccc(OP(=O)(O)Oc2ccc([N+](=O)[O-])cc2)cc1 [BNPP, reference compound] | 99.1 ± 0.93 ^e % | – | – | – | – | – | – | – | – | –
9 | CC[N+](C)(CC)CCC[n+]1c(-c2ccccc2)c2cc(N)ccc2c2ccc(N)cc21.[I-].[I-] [Propidium iodide, reference compound] | – | 90.7 ± 7.1% | – | – | – | – | – | – | – | –
10 | O=P(Oc1ccccc1)(Oc1ccccc1)c1c2ccccc2nc2ccccc12 [Compound 2c] | 27.6 ± 2.2% | – | 12.4 ± 1.4 | 32.7 ± 2.6 | – | 3.6 ± 0.3 | – | – | – | –
11 | O=P(CCc1ccc(Cl)cc1)(CCc1ccc(Cl)cc1)c1c2ccccc2nc2ccccc12 [Compound 2f] | 18.4 ± 1.4% | – | 15.2 ± 1.3 | 20.4 ± 1.6 | – | 11.2 ± 0.8 | – | – | – | –
12 | COP(=O)(OC)c1c2ccccc2nc2ccccc12 [Compound 2a] | 4.3 ± 1.1% | 4.9 ± 0.4% | – | – | 0.08 ± 0.02 | – | – | – | – | Human erythrocyte AChE, (%) inhibition (Human erythrocyte AChE): 9.1 ± 1.2%; Equine serum BChE, (%) inhibition (Equine serum BChE): 9.0 ± 1.4%
13 | COP(=O)(OC)C1c2ccccc2Nc2ccccc21 [Compound 1a] | n.а | 4.9 ± 0.4% | – | – | 1.60 ± 0.01 | – | – | 0.99 ± 0.04 | 21.3 ± 1.4 | Human erythrocyte AChE, (%) inhibition (Human erythrocyte AChE): 5.3 ± 1.3%; Equine serum BChE, (%) inhibition (Equine serum BChE): 21.3 ± 1.7%
14 | O=P(OCc1ccccc1)(OCc1ccccc1)c1c2ccccc2nc2ccccc12 [Compound 2d] | 20.4 ± 1.8% | n.а | 10.8 ± 1.5 | – | – | – | 6.9 ± 0.55 | – | – | times less effective BChE inhibitor than the corresponding dihydroacridine (1d) (Equine serum BChE; ratio of BChE IC50 values): 2.4
15 | Cc1c(C)c2c(c(C)c1O)CCC(C)(C(=O)O)O2 (centres unmarked) [Trolox, 6-hydroxy-2,5,7,8-tetramethylchroman-2-carboxylic acid, reference compound] | – | – | – | – | 1.0 | – | – | 1.0 | 20.1 ± 0.7 | –
16 | CCOP(=O)(OCC)C1c2ccccc2Nc2ccccc21 [Compound 1b] | n.а | – | 4.4 ± 1.1 | 16.9 ± 1.5 | 1.15 ± 0.01 | 8.1 ± 0.8 | – | 0.97 ± 0.03 | 20.8 ± 1.3 | –
